Experimental data from the supplement of paper PMC10307832.

Experiments:
Assay in all cases: relative viability (nuclei count vs DMSO), 5 days (fraction); higher = more cells survive
[1] = system: ABC-1
Procedure, shortened: (§1)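 A single step with final 0.05% Triton X-100, 1% formaldehyde and 1 ug/ml Hoechst fixed the cells and stained nuclei 5 days after treatment. Lung cancer cell lines in 1536-well plates had been treated by pin tool the day after seeding with one drug alone or a fixed anchor-drug dose plus five library-drug doses (not always all listed) in √10 steps, and nuclei were counted on 4× images. Relative viability is the ratio of nuclei in treated wells to nuclei in vehicle wells, taken as the median of duplicate plates.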

[2] = system: COR-L23
Procedure, shortened: as §1

[3] = system: ChaGo-K-1
Procedure, shortened: as §1

[4] = system: EMC-BAC-2
Procedure, shortened: as §1

[5] = system: HARA
Procedure, shortened: as §1

[6] = system: HCC-15
Procedure, shortened: as §1

[7] = system: HCC-366
Procedure, shortened: as §1

[8] = system: HCC-78
Procedure, shortened: as §1

[9] = system: HOP-62
Procedure, shortened: as §1

[10] = system: LC-2-ad
Procedure, shortened: as §1

[11] = system: NCI-H1395
Procedure, shortened: as §1

[12] = system: NCI-H1793
Procedure, shortened: as §1

[13] = system: NCI-H1944
Procedure, shortened: as §1

[14] = system: NCI-H1993
Procedure, shortened: as §1

[15] = system: NCI-H2023
Procedure, shortened: as §1

[16] = system: NCI-H2126
Procedure, shortened: as §1

[17] = system: NCI-H2228
Procedure, shortened: as §1

[18] = system: NCI-H23
Procedure, shortened: as §1

[19] = system: NCI-H2405
Procedure, shortened: as §1

[20] = system: NCI-H358
Procedure, shortened: as §1

[21] = system: NCI-H838
Procedure, shortened: as §1

[22] = system: SK-LU-1
Procedure, shortened: as §1

Cc1sc2c(c1C)C(c1ccc(Cl)cc1)=N[C@@H](CC(=O)OC(C)(C)C)c1nnc(C)n1-2 [JQ1] + Cc1cc(Nc2cc(N3CCN(C)CC3)nc(Sc3ccc(NC(=O)C4CC4)cc3)n2)n[nH]1 [Tozasertib] (partner 0.1 µM)
relative viability ([1]; first compound 0.04 µM): 0.187 | relative viability ([1]; first compound 0.1265 µM): 0.18 | relative viability ([1]; first compound 0.4 µM): 0.196 | relative viability ([1]; first compound 1.265 µM): 0.175 | relative viability ([1]; first compound 4 µM): 0.179 | relative viability ([2]; first compound 0.04 µM): 0.217 | relative viability ([2]; first compound 0.1265 µM): 0.148 | relative viability ([2]; first compound 0.4 µM): 0.154 | relative viability ([2]; first compound 1.265 µM): 0.11 | relative viability ([2]; first compound 4 µM): 0.109 | relative viability ([3]; first compound 0.04 µM): 0.205 | relative viability ([3]; first compound 0.1265 µM): 0.224 | relative viability ([3]; first compound 0.4 µM): 0.168 | relative viability ([3]; first compound 1.265 µM): 0.158 | relative viability ([3]; first compound 4 µM): 0.164 | relative viability ([4]; first compound 0.04 µM): 0.248 | relative viability ([4]; first compound 0.1265 µM): 0.235 | relative viability ([4]; first compound 0.4 µM): 0.221 | relative viability ([4]; first compound 1.265 µM): 0.174 | relative viability ([4]; first compound 4 µM): 0.174 | relative viability ([5]; first compound 0.04 µM): 0.112 | relative viability ([5]; first compound 0.1265 µM): 0.122 | relative viability ([5]; first compound 0.4 µM): 0.123 | relative viability ([5]; first compound 1.265 µM): 0.08 | relative viability ([5]; first compound 4 µM): 0.0561 | relative viability ([6]; first compound 0.04 µM): 0.417 | relative viability ([6]; first compound 0.4 µM): 0.314 | relative viability ([6]; first compound 1.265 µM): 0.119 | relative viability ([6]; first compound 4 µM): 0.0896 | relative viability ([7]; first compound 0.04 µM): 0.112 | relative viability ([7]; first compound 0.4 µM): 0.0922 | relative viability ([7]; first compound 1.265 µM): 0.0515 | relative viability ([7]; first compound 4 µM): 0.0708 | relative viability ([8]; first compound 0.04 µM): 0.474 | relative viability ([8]; first compound 0.1265 µM): 0.389 | relative viability ([8]; first compound 0.4 µM): 0.4 | relative viability ([8]; first compound 1.265 µM): 0.299 | relative viability ([8]; first compound 4 µM): 0.302 | relative viability ([9]; first compound 0.04 µM): 0.361 | relative viability ([9]; first compound 0.1265 µM): 0.305 | relative viability ([9]; first compound 0.4 µM): 0.192 | relative viability ([9]; first compound 1.265 µM): 0.122 | relative viability ([9]; first compound 4 µM): 0.122 | relative viability ([10]; first compound 0.04 µM): 0.45 | relative viability ([10]; first compound 0.1265 µM): 0.351 | relative viability ([10]; first compound 0.4 µM): 0.351 | relative viability ([10]; first compound 1.265 µM): 0.297 | relative viability ([10]; first compound 4 µM): 0.232 | relative viability ([11]; first compound 0.04 µM): 0.734 | relative viability ([11]; first compound 0.1265 µM): 0.681 | relative viability ([11]; first compound 0.4 µM): 0.652 | relative viability ([11]; first compound 1.265 µM): 0.495 | relative viability ([11]; first compound 4 µM): 0.419 | relative viability ([12]; first compound 0.04 µM): 0.355 | relative viability ([12]; first compound 0.1265 µM): 0.316 | relative viability ([12]; first compound 0.4 µM): 0.282 | relative viability ([12]; first compound 1.265 µM): 0.185 | relative viability ([12]; first compound 4 µM): 0.226 | relative viability ([13]; first compound 0.04 µM): 0.231 | relative viability ([13]; first compound 0.1265 µM): 0.225 | relative viability ([13]; first compound 0.4 µM): 0.227 | relative viability ([13]; first compound 1.265 µM): 0.208 | relative viability ([13]; first compound 4 µM): 0.185 | relative viability ([14]; first compound 0.04 µM): 0.509 | relative viability ([14]; first compound 0.1265 µM): 0.62 | relative viability ([14]; first compound 0.4 µM): 0.513 | relative viability ([14]; first compound 1.265 µM): 0.424 | relative viability ([14]; first compound 4 µM): 0.489 | relative viability ([15]; first compound 0.04 µM): 0.354 | relative viability ([15]; first compound 0.1265 µM): 0.308 | relative viability ([15]; first compound 0.4 µM): 0.186 | relative viability ([15]; first compound 1.265 µM): 0.1 | relative viability ([15]; first compound 4 µM): 0.0918 | relative viability ([16]; first compound 0.04 µM): 0.8 | relative viability ([16]; first compound 0.1265 µM): 0.849 | relative viability ([16]; first compound 0.4 µM): 0.607 | relative viability ([16]; first compound 1.265 µM): 0.419 | relative viability ([16]; first compound 4 µM): 0.31 | relative viability ([17]; first compound 0.04 µM): 0.286 | relative viability ([17]; first compound 0.1265 µM): 0.284 | relative viability ([17]; first compound 0.4 µM): 0.207 | relative viability ([17]; first compound 1.265 µM): 0.126 | relative viability ([17]; first compound 4 µM): 0.08 | relative viability ([18]; first compound 0.04 µM): 0.263 | relative viability ([18]; first compound 0.1265 µM): 0.253 | relative viability ([18]; first compound 0.4 µM): 0.279 | relative viability ([18]; first compound 1.265 µM): 0.147 | relative viability ([18]; first compound 4 µM): 0.138 | relative viability ([19]; first compound 0.04 µM): 0.716 | relative viability ([19]; first compound 0.1265 µM): 0.712 | relative viability ([19]; first compound 0.4 µM): 0.723 | relative viability ([19]; first compound 1.265 µM): 0.584 | relative viability ([19]; first compound 4 µM): 0.498 | relative viability ([20]; first compound 0.04 µM): 0.102 | relative viability ([20]; first compound 0.1265 µM): 0.102 | relative viability ([20]; first compound 0.4 µM): 0.124 | relative viability ([20]; first compound 1.265 µM): 0.107 | relative viability ([20]; first compound 4 µM): 0.0861 | relative viability ([21]; first compound 0.04 µM): 0.26 | relative viability ([21]; first compound 0.1265 µM): 0.221 | relative viability ([21]; first compound 0.4 µM): 0.263 | relative viability ([21]; first compound 1.265 µM): 0.179 | relative viability ([21]; first compound 4 µM): 0.134 | relative viability ([22]; first compound 0.04 µM): 0.282 | relative viability ([22]; first compound 0.1265 µM): 0.27 | relative viability ([22]; first compound 0.4 µM): 0.249 | relative viability ([22]; first compound 1.265 µM): 0.0708 | relative viability ([22]; first compound 4 µM): 0.0741
